Experimental data reported in US20240239808A1 (Forma Therapeutics, Inc., priority 2021, published 2024).

The compounds below were run against T1, USP1, construct USP1 (1-785, GG670, 671AA)/UAF1 (1-677)-Flag (Homo sapiens, UniProt O94782, G670A/G671A) (assay: Ubiquitin-Rhodamine 110 assay for USP1 activity). Conditions: enzyme 25 pM, Ub-Rh110 25 nM, 30 minutes preincubation, 8- or 10-point dilution.
T1 construct: USP1, construct USP1 (1-785, GG670, 671AA)/UAF1 (1-677)-Flag; Viva; purchased Viva
Type: biochemical
Experimental: Example A: Ubitquin-Rhodamine 110 Assay for USP1 Activity
The HTS assay was performed in a final volume of 20 μL in assay buffer containing 20 mM Tris-HCl (pH 8.0, (1M Tris-HCl, pH 8.0 solution; Corning 46-031-CM)), 2 mM CaCl2) (1M Calcium Chloride solution; Sigma #21114) 1 mM GSH (L-Glutathione reduced; Sigma #G4251), 0.01% Prionex ([…] filtered, Sigma #G-0411), and 0.01% Triton X-100. Stock compound solutions were stored at −20° C. as 10 mM in DMSO. Up to 1 month prior to the assay, 2 mM test compounds were pre-dispensed into assay plates (Black, low volume; Corning #3820) and frozen at −20° C. Pre-stamped assay plates were allowed to come to room temperature on the day of the assay. For the screen, 100 nL of 2 mM was pre-dispensed for a final screening concentration of 10 μM (DMSO(fc)=0.5%). The final concentration of the enzyme (USP1, construct USP1 (1-785, GG670, 671AA)/UAF1 (1-677)-Flag; Viva) in the assay was 100 pM. Final substrate (Ub-Rh110; Ubiquitin-Rhodamine 110, R&D Systems #U-555) concentration was 25 nM with [Ub-Rh110]<<Km. 10 μL of 2× enzyme was added to assay plates (pre-stamped with compound) either simultaneously with 2×Ub-Rh110 or preincubated with USP1 40 minutes prior to the addition of 10 μL of 2×Ub-Rh110 to compound plates. Plates were incubated stacked for 45 minutes at room temperature before fluorescence was read on the Envision (Excitation at 485 nm and Emission at 535 nm; Perkin Elmer) or on the PheraSTAR (Excitation at 485 nm and Emission at 535 nm; BMG Labtech).
Nanoliter quantities of either an 8-point or 10-point, 3-fold serial dilution in DMSO were pre-dispensed into assay plates (Perkin Elmer, ProxiPlate-384 F Plus, #6008269) for a final test concentration range of either 25 μM to 11 nM or 25 μM to 1.3 nM, respectively. The final concentration of the enzyme (USP1, construct USP1 (1-785, GG670, 671AA)/UAF1 (1-677)-Flag; Viva) in the assay was 25 pM. Final substrate (Ub-Rh110; Ubiquitin-Rhodamine 110, R&D Systems #U-555) concentration was 25 nM with [Ub-Rh110]<<Km. 5 μL of 2× enzyme was added to assay plates (pre-stamped with compound) preincubated with USP1 for 30 minutes and then 5 μL of 2×Ub-Rh110 was added to assay plates. Plates were incubated stacked for 20 minutes at room temperature before 5 μL of stop solution (final concentration of 10 mM citric acid in assay buffer (Sigma, #251275-500G)). Fluorescence was read on the Envision (Excitation at 485 nm and Emission at 535 nm; Perkin Elmer) or on the PheraSTAR (Excitation at 485 nm and Emission at 535 nm; BMG Labtech).
For both assay formats data were reported as percent inhibition compared with control wells based on the following equation: % inh=[1−((FLU−AveLow)/(AveHigh−AveLow))]×100 where FLU=measured Fluorescence, AveLow=average Fluorescence of no enzyme control (n=16), and AveHigh=average Fluorescence of DMSO control (n=16). IC50 values were determined by curve fitting of the standard 4 parameter logistic fitting algorithm included in the Activity Base software package: IDBS XE Designer Model205. Data is fitted using the Levenburg Marquardt algorithm.

T1 sequence (O94782 whole entry G670A/G671A): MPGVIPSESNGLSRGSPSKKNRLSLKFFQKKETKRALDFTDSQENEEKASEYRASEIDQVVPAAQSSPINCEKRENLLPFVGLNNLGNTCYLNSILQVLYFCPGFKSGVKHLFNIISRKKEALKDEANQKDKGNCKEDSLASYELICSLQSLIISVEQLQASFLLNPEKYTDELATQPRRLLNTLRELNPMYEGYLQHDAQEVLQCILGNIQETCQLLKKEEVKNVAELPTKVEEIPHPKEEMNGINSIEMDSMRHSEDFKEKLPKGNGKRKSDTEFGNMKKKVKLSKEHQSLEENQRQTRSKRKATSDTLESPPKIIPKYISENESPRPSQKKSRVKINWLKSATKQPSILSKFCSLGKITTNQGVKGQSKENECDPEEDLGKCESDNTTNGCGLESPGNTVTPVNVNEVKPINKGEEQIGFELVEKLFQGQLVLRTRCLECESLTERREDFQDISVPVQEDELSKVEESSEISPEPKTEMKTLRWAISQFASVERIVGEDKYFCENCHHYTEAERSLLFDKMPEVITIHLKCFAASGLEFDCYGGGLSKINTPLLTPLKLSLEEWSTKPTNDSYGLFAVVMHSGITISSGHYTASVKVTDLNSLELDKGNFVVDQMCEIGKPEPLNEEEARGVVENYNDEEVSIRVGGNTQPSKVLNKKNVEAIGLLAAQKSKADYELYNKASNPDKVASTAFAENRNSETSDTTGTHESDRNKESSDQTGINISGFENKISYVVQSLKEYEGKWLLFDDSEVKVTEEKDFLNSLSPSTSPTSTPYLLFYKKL
T1 sequence (Q8TAF3 whole entry partner): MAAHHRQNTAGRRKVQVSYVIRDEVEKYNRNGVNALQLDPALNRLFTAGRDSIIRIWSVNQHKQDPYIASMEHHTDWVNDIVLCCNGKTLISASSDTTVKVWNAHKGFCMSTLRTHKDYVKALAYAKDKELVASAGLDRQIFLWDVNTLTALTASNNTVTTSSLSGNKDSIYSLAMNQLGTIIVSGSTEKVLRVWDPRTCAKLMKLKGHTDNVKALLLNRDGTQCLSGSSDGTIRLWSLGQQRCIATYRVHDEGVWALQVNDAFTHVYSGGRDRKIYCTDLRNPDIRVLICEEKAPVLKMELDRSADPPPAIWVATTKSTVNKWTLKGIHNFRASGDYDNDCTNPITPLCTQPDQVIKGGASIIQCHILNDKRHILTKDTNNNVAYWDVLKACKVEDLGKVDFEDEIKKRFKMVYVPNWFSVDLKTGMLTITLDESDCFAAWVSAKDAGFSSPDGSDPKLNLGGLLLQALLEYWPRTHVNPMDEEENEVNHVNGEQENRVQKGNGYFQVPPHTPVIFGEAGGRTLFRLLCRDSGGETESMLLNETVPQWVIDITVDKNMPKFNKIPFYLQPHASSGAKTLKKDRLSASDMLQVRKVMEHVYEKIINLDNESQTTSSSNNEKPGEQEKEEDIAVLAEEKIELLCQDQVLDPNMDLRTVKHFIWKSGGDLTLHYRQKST

`CC(C)c1ccccc1-c1ncc2sc(=O)n(Cc3ccc(-c4nc(C(F)(F)F)cn4C)cc3)c2n1` [Example I-1, 5-(2-isopropylphenyl)-3-(4-(1-methyl-4-(trifluoromethyl)-1H-imidazol-2-yl)benzyl)thiazolo[4,5-d]pyrimidin-2(3H)-one] and `CC(C)c1ccccc1-c1ncc2oc(=O)n(Cc3ccc(-c4nc(C(F)(F)F)cn4C)cc3)c2n1` [Example I-12, 5-(2-isopropylphenyl)-3-(4-(1-methyl-4-(trifluoromethyl)-1H-imidazol-2-yl)benzyl)oxazolo[4,5-d]pyrimidin-2(3H)-one] cannot be ordered by IC50: ≤ 10 nM for the first, ≤ 10 nM for the second.

`CC(C)c1ncccc1-c1ncc2c(n1)N(Cc1ccc(-c3nc(C(F)(F)F)cn3C)cc1)CCO2` [Example I-2, 3-[8-([4-[1-methyl-4-(trifluoromethyl)-1H-imidazol-2-yl]phenyl]methyl)-6H,7H,8H-pyrimido[5,4-b][1,4]oxazin-2-yl]-2-(propan-2-yl)pyridine] and `CC(C)c1ncccc1-c1ncc2c(n1)N(Cc1ccc(-c3nc(C(F)(F)F)cn3C)cc1)C(=O)CO2` [Example I-4, 8-([4-[1-methyl-4-(trifluoromethyl)-1H-imidazol-2-yl]phenyl]methyl)-2-[2-(propan-2-yl)pyridin-3-yl]-6H,7H,8H-pyrimido[5,4-b][1,4]oxazin-7-one] cannot be ordered by IC50: ≤ 10 nM for the first, 10 to 100 nM for the second.

`CC(C)c1ncccc1-c1ncc2c(n1)N(Cc1ccc(-c3nc(C(F)(F)F)cn3C)cc1)C(=O)C(C)(C)O2` [Example I-5, 6,6-dimethyl-8-([4-[1-methyl-4-(trifluoromethyl)-1H-imidazol-2-yl]phenyl]methyl)-2-[2-(propan-2-yl)pyridin-3-yl]-6H,7H,8H-pyrimido[5,4-b][1,4]oxazin-7-one] and `CC(C)c1ncccc1-c1ncc2c(n1)N(Cc1ccc(-c3nc(C(F)(F)F)cn3C)cc1)C(=O)C21CC1` [Example I-11, 3′-([4-[1-methyl-4-(trifluoromethyl)-1H-imidazol-2-yl]phenyl]methyl)-5′-[2-(propan-2-yl)pyridin-3-yl]-2′,3′-dihydrospiro[cyclopropane-1,1′-pyrrolo[2,3-d]pyrimidine]-2′-one] fall in the same range of IC50: 10 to 100 nM for the first, 10 to 100 nM for the second.

`CC(C)c1ccccc1-c1ncc2c(n1)N(Cc1ccc(-c3nc(C(F)(F)F)cn3C)cc1)C(=O)N(C)C2` [Example I-6, 3-methyl-1-([4-[1-methyl-4-(trifluoromethyl)-1H-imidazol-2-yl]phenyl]methyl)-7-[2-(propan-2-yl)phenyl]-1H,2H,3H,4H-[1,3]diazino[4,5-d]pyrimidin-2-one] and `CC(C)c1ccccc1-c1ncc2c(n1)N(Cc1ccc(-c3nc(C(F)(F)F)cn3C)cc1)C(=O)C2` [Example I-18, 7-([4-[1-methyl-4-(trifluoromethyl)-1H-imidazol-2-yl]phenyl]methyl)-2-[2-(propan-2-yl)phenyl]-5H,6H,7H-pyrrolo[2,3-d]pyrimidin-6-one] cannot be ordered by IC50: 10 to 100 nM for the first, ≤ 10 nM for the second.

`CC(C)c1ccccc1-c1ncc2c(n1)N(Cc1ccc(-c3nc(C(F)(F)F)cn3C)cc1)C(=O)OC2` [Example I-7, 1-([4-[1-methyl-4-(trifluoromethyl)-1H-imidazol-2-yl]phenyl]methyl)-7-[2-(propan-2-yl)phenyl]-1H,2H, 4H-pyrimido[4,5-d][1,3]oxazin-2-one] and `CC(C)c1ncccc1-c1ncc2c(n1)N(Cc1ccc(-c3nc(C(F)(F)F)cn3C)cc1)C(=O)OC2` [Example I-8, 1-([4-[1-methyl-4-(trifluoromethyl)-1H-imidazol-2-yl]phenyl]methyl)-7-[2-(propan-2-yl)pyridin-3-yl]-1H,2H, 4H-pyrimido[4,5-d][1,3]oxazin-2-one] cannot be ordered by IC50: ≤ 10 nM for the first, 10 to 100 nM for the second.

`CC(C)c1ncccc1-c1ncc2ccn(Cc3ccc(-c4nc(C(F)(F)F)cn4C)cc3)c2n1` [Example I-9, 3-[7-([4-[1-methyl-4-(trifluoromethyl)-1H-imidazol-2-yl]phenyl]methyl)-7H-pyrrolo[2,3-d]pyrimidin-2-yl]-2-(propan-2-yl)pyridine] and `CC(C)c1ncccc1-c1ncc2cnn(Cc3ccc(-c4nc(C(F)(F)F)cn4C)cc3)c2n1` [Example I-10, 3-[1-([4-[1-methyl-4-(trifluoromethyl)-1H-imidazol-2-yl]phenyl]methyl)-1H-pyrazolo[3,4-d]pyrimidin-6-yl]-2-(propan-2-yl)pyridine] cannot be ordered by IC50: ≤ 10 nM for the first, 10 to 100 nM for the second.

`CC(C)c1ncccc1-c1ncc2oc(=O)n(Cc3ccc(-c4nc(C(F)(F)F)cn4C)cc3)c2n1` [Example I-13] and `COc1nc2cnc(-c3cccnc3C(C)C)nc2n1Cc1ccc(-c2nc(C(F)(F)F)cn2C)cc1` [Example I-17, 8-methoxy-9-([4-[1-methyl-4-(trifluoromethyl)-1H-imidazol-2-yl]phenyl]methyl)-2-[2-(propan-2-yl)pyridin-3-yl]-9H-purine] fall in the same range of IC50: 100 to 1000 nM for the first, 100 to 1000 nM for the second.

`CC(C)c1ccccc1-c1ncc2nc(C3CNC3)n(Cc3ccc(-n4cccn4)cc3)c2n1` [Example I-14, 8-(azetidin-3-yl)-2-[2-(propan-2-yl)phenyl]-9-[[4-(1H-pyrazol-1-yl)phenyl]methyl]-9H-purine] and `CC(C)c1ccccc1-c1ncc2nc(C3COC3)n(Cc3ccc(-n4cccn4)cc3)c2n1` [Example I-15, 8-(oxetan-3-yl)-2-[2-(propan-2-yl)phenyl]-9-[[4-(1H-pyrazol-1-yl)phenyl]methyl]-9H-purine] fall in the same range of IC50: 100 to 1000 nM for the first, 100 to 1000 nM for the second.

`CC(C)c1ncccc1-c1ncc2c(n1)N(Cc1ccc(-c3nc(C(F)(F)F)cn3C)cc1)C(=O)C2` [Example I-16, 7-([4-[1-methyl-4-(trifluoromethyl)-1H-imidazol-2-yl]phenyl]methyl)-2-[2-(propan-2-yl)pyridin-3-yl]-5H,6H,7H-pyrrolo[2,3-d]pyrimidin-6-one] and `CC(C)c1ncccc1-c1ncc2c(n1)N(Cc1ccc(-c3nc(C(F)(F)F)cn3C)cc1)C(=O)CC2` [Example I-20, 8-([4-[1-methyl-4-(trifluoromethyl)-1H-imidazol-2-yl]phenyl]methyl)-2-[2-(propan-2-yl)pyridin-3-yl]-5H,6H,7H,8H-pyrido[2,3-d]pyrimidin-7-one] fall in the same range of IC50: 10 to 100 nM for the first, 10 to 100 nM for the second.

Compared with `CC(C)c1ncccc1-c1ncc2c(n1)N(Cc1ccc(-c3nc(C(F)(F)F)cn3C3COC3)cc1)C(=O)C2` [Example I-19, 7-([4-[1-(oxetan-3-yl)-4-(trifluoromethyl)-1H-imidazol-2-yl]phenyl]methyl)-2-[2-(propan-2-yl)pyridin-3-yl]-5H,6H,7H-pyrrolo[2,3-d]pyrimidin-6-one], `COc1ncnc(C2CC2)c1-c1ncc2sc(=O)n(Cc3ccc(-c4nc(C(F)(F)F)cn4C)cc3)c2n1` [Example I-22, 5-(4-cyclopropyl-6-methoxypyrimidin-5-yl)-3-(4-(1-methyl-4-(trifluoromethyl)-1H-imidazol-2-yl)benzyl)thiazolo[4,5-d]pyrimidin-2(3H)-one] is lower in IC50: 100 to 1000 nM for the first, ≤ 10 nM for the second.

For `COc1ncnc(C2CC2)c1-c1ncc2sc(=O)n(Cc3ccc(-n4nc(C(F)(F)F)cc4C)cc3)c2n1` [Example I-21, 5-(4-cyclopropyl-6-methoxypyrimidin-5-yl)-3-(4-(5-methyl-3-(trifluoromethyl)-1H-pyrazol-1-yl)benzyl)thiazolo[4,5-d]pyrimidin-2(3H)-one], the IC50 was ≤ 10 nM.
